Assay results taken from ChEMBL document CHEMBL1156829 (Proc Natl Acad Sci U S A, 2008).

What was measured:
Plasmodium falciparum [1] = test: NOVARTIS: Inhibition of Plasmodium falciparum 3D7 (drug-susceptible) proliferation in erythrocyte-based infection assay; format: functional, organism-based
Plasmodium falciparum [2] = test: NOVARTIS: Inhibition of Plasmodium falciparum W2 (drug-resistant) proliferation in erythrocyte-based infection assay; format: functional, organism-based; conditions: read-out: EC50
[3] = NOVARTIS: Cytotoxicity against human hepatocellular carcinoma cell line (Huh7); format: toxicity, cell-based, Huh-7; conditions: Huh7 cells (hepatocellular carcinoma cell line)

## CCN(CC)c1scc(-c2ccc(Cl)cc2)[s+]1
Plasmodium falciparum [1]; Plasmodium falciparum, 3D7
  EC50: 303 nM
Plasmodium falciparum [2]; Plasmodium falciparum, W2
  EC50: 725 nM
[3]
  CC50: 25400 nM

## CC1CC(C)CN(c2ccc([N+](=O)[O-])cc2-c2nnn[nH]2)C1 (configuration not stated)
Plasmodium falciparum [1]; Plasmodium falciparum, 3D7
  EC50: > 831 nM
Plasmodium falciparum [2]; Plasmodium falciparum, W2
  EC50: > 1610 nM
[3]
  CC50: > 10000 nM

## COc1cc2nc(NCCCOC(C)C)n3nc(-c4ccccc4)nc3c2cc1OC
Plasmodium falciparum [1]; Plasmodium falciparum, 3D7
  EC50: 793 nM
Plasmodium falciparum [2]; Plasmodium falciparum, W2
  EC50: 1210 nM
[3]
  CC50: > 100000 nM

## CSc1ccc(Cl)c(Cl)c1
Plasmodium falciparum [1]; Plasmodium falciparum, 3D7
  EC50: 83.9 nM
Plasmodium falciparum [2]; Plasmodium falciparum, W2
  EC50: 398 nM
[3]
  CC50: 2350 nM

## CCOC(=O)c1c(CNC)n(C)c2cc(Br)c(O)cc12
Plasmodium falciparum [1]; Plasmodium falciparum, 3D7
  EC50: 458 nM
Plasmodium falciparum [2]; Plasmodium falciparum, W2
  EC50: 691 nM
[3]
  CC50: > 100000 nM

## CCCCOC(=O)c1ccc(NC2=C(c3ccc(OC)cc3)C(=O)c3ccccc32)cc1
Plasmodium falciparum [1]; Plasmodium falciparum, 3D7
  EC50: 1210 nM
Plasmodium falciparum [2]; Plasmodium falciparum, W2
  EC50: 758 nM
[3]
  CC50: > 100000 nM

## CCCCc1ccc(C(=O)NCCCN(C(=O)Nc2ccc([N+](=O)[O-])cc2)c2ccccc2)cc1
Plasmodium falciparum [1]; Plasmodium falciparum, 3D7
  EC50: > 1250 nM
Plasmodium falciparum [2]; Plasmodium falciparum, W2
  EC50: 1210 nM
[3]
  CC50: 2680 nM

## COc1ccc(S(=O)(=O)N=C2C=C(Nc3ccc(O)cc3)C(=O)c3ccccc32)cc1
Plasmodium falciparum [1]; Plasmodium falciparum, 3D7
  EC50: 185 nM
Plasmodium falciparum [2]; Plasmodium falciparum, W2
  EC50: 109 nM
[3]
  CC50: 2450 nM

## c1cncc(CCNc2nccn3c(-c4ccc5ccccc5c4)cnc23)c1
Plasmodium falciparum [1]; Plasmodium falciparum, 3D7
  EC50: 115 nM
Plasmodium falciparum [2]; Plasmodium falciparum, W2
  EC50: 81.2 nM
[3]
  CC50: 34400 nM

## CCOC(=O)C1=CN(c2cc(C)ccc2C)C=C(C(=O)OCC)C1c1ccccc1OCC
Plasmodium falciparum [1]; Plasmodium falciparum, 3D7
  EC50: 264 nM
Plasmodium falciparum [2]; Plasmodium falciparum, W2
  EC50: 328 nM
[3]
  CC50: > 100000 nM

## COc1ccc2nc(C)cc(Nc3ccc(Oc4ccc5ccccc5c4)c(Cl)c3)c2c1
Plasmodium falciparum [1]; Plasmodium falciparum, 3D7
  EC50: 166 nM
Plasmodium falciparum [2]; Plasmodium falciparum, W2
  EC50: 206 nM
[3]
  CC50: 7070 nM

## CC(=O)Nc1ccc(NC2=C(N3CCCCC3)C(=O)c3ccccc3C2=O)cc1
Plasmodium falciparum [1]; Plasmodium falciparum, 3D7
  EC50: 52.8 nM
Plasmodium falciparum [2]; Plasmodium falciparum, W2
  EC50: 111 nM
[3]
  CC50: > 100000 nM

## CCOc1ccccc1-n1c(C(C)N(Cc2ccccc2)C(=O)Nc2ccccc2OC)nc2ccccc2c1=O (configuration not stated)
Plasmodium falciparum [1]; Plasmodium falciparum, 3D7
  EC50: 484 nM
Plasmodium falciparum [2]; Plasmodium falciparum, W2
  EC50: 397 nM
[3]
  CC50: > 6650 nM

## CCOC(=O)c1sc(NC(=O)CSc2nnc(CNC(=O)COc3ccccc3)n2C)c(C(=O)OCC)c1C
Plasmodium falciparum [1]; Plasmodium falciparum, 3D7
  EC50: > 1080 nM
Plasmodium falciparum [2]; Plasmodium falciparum, W2
  EC50: > 1250 nM
[3]
  CC50: > 10000 nM

## COC(=O)C1=C(C)NC2=C(C(=O)CC(c3ccc(OC)c(OC)c3)C2)C1c1ccc([N+](=O)[O-])cc1 (configuration not stated)
Plasmodium falciparum [1]; Plasmodium falciparum, 3D7
  EC50: 2680 nM
Plasmodium falciparum [2]; Plasmodium falciparum, W2
  EC50: 704 nM
[3]
  CC50: > 100000 nM

## CCN1CCN(c2cc(C)c3cc(NC(=O)c4cc(=O)c5ccccc5o4)ccc3n2)CC1
Plasmodium falciparum [1]; Plasmodium falciparum, 3D7
  EC50: 498 nM
Plasmodium falciparum [2]; Plasmodium falciparum, W2
  EC50: 386 nM
[3]
  CC50: > 10000 nM

## O=C1CC(c2ccccc2)CC2=C1C(c1ccccc1F)Nc1ccccc1N2 (configuration not stated)
Plasmodium falciparum [1]; Plasmodium falciparum, 3D7
  EC50: 462 nM
Plasmodium falciparum [2]; Plasmodium falciparum, W2
  EC50: 359 nM
[3]
  CC50: > 100000 nM

## O=C(NC1CC1)c1ccc(CSCc2ccccc2Cl)o1
Plasmodium falciparum [1]; Plasmodium falciparum, 3D7
  EC50: 503 nM
Plasmodium falciparum [2]; Plasmodium falciparum, W2
  EC50: 562 nM
[3]
  CC50: > 100000 nM

## CN1C2CCC1/C(=C\c1ccsc1)C(=O)/C2=C\c1ccsc1
Plasmodium falciparum [1]; Plasmodium falciparum, 3D7
  EC50: > 1300 nM
Plasmodium falciparum [2]; Plasmodium falciparum, W2
  EC50: > 1190 nM
[3]
  CC50: > 10000 nM

## COC(=O)[C@@H]1C[C@@H](NC(=O)c2ccccc2F)CN1CC(c1ccccc1)c1ccccc1
Plasmodium falciparum [1]; Plasmodium falciparum, 3D7
  EC50: 1060 nM
Plasmodium falciparum [2]; Plasmodium falciparum, W2
  EC50: > 1180 nM
[3]
  CC50: > 10000 nM

## CN(C)CCCN(Cc1cc2cc3c(cc2[nH]c1=O)OCO3)C(=S)Nc1cccc(Cl)c1
Plasmodium falciparum [1]; Plasmodium falciparum, 3D7
  EC50: 978 nM
Plasmodium falciparum [2]; Plasmodium falciparum, W2
  EC50: 918 nM
[3]
  CC50: > 100000 nM

## Cc1ccc(-[n+]2c(-c3ccccc3)cn3c2CCCCC3)cc1
Plasmodium falciparum [1]; Plasmodium falciparum, 3D7
  EC50: 605 nM
Plasmodium falciparum [2]; Plasmodium falciparum, W2
  EC50: 515 nM
[3]
  CC50: 67800 nM

## COc1ccc(Cn2c(=S)[nH]c3ccsc3c2=O)cc1
Plasmodium falciparum [1]; Plasmodium falciparum, 3D7
  EC50: > 1430 nM
Plasmodium falciparum [2]; Plasmodium falciparum, W2
  EC50: 1100 nM
[3]
  CC50: > 10000 nM

## CCCCCCN(CCCCCC)CC(O)c1cc(-c2ccc(Cl)cc2)nc2c(C)cc(C)cc12 (configuration not stated)
Plasmodium falciparum [1]; Plasmodium falciparum, 3D7
  EC50: 7130 nM
Plasmodium falciparum [2]; Plasmodium falciparum, W2
  EC50: 5940 nM
[3]
  CC50: 51900 nM

## O=C(C[n+]1cc(-c2ccccc2)n2c1CCC2)c1ccc(C2CCCCC2)cc1
Plasmodium falciparum [1]; Plasmodium falciparum, 3D7
  EC50: 312 nM
Plasmodium falciparum [2]; Plasmodium falciparum, W2
  EC50: 393 nM
[3]
  CC50: 17100 nM

## Cc1nonc1C(=O)NN=Cc1ccc([N+](=O)[O-])o1
Plasmodium falciparum [1]; Plasmodium falciparum, 3D7
  EC50: 1730 nM
Plasmodium falciparum [2]; Plasmodium falciparum, W2
  EC50: 420 nM
[3]
  CC50: 49300 nM

## CC[n+]1cc(C)ccc1C=Cc1ccc(N(C)C)cc1
Plasmodium falciparum [1]
  EC50: 195 nM
Plasmodium falciparum [2]
  EC50: 232 nM
[3]
  CC50: 15200 nM

## Clc1cccc(Nc2nc(NCc3ccco3)c3ccccc3n2)c1
Plasmodium falciparum [1]; Plasmodium falciparum, 3D7
  EC50: 112 nM
Plasmodium falciparum [2]; Plasmodium falciparum, W2
  EC50: 203 nM
[3]
  CC50: 16000 nM

## O=C(NCCCCNc1ccnc2cc(Cl)ccc12)c1ccco1
Plasmodium falciparum [1]; Plasmodium falciparum, 3D7
  EC50: 723 nM
Plasmodium falciparum [2]; Plasmodium falciparum, W2
  EC50: 1400 nM
[3]
  CC50: > 13100 nM

## CCN1CCN(c2cc(C)c3cc(NC(=O)C=Cc4ccccc4Cl)ccc3n2)CC1
Plasmodium falciparum [1]; Plasmodium falciparum, 3D7
  EC50: 546 nM
Plasmodium falciparum [2]; Plasmodium falciparum, W2
  EC50: 697 nM
[3]
  CC50: 18400 nM

## Cc1cc(Nc2cccc3ccccc23)nc(Nc2cccc3ccccc23)n1
Plasmodium falciparum [1]; Plasmodium falciparum, 3D7
  EC50: 274 nM
Plasmodium falciparum [2]; Plasmodium falciparum, W2
  EC50: 395 nM
[3]
  CC50: > 10000 nM

## Oc1ccc(-c2cnccn2)cc1CNC1CCN(Cc2ccccc2)CC1
Plasmodium falciparum [1]; Plasmodium falciparum, 3D7
  EC50: 385 nM
Plasmodium falciparum [2]; Plasmodium falciparum, W2
  EC50: 380 nM
[3]
  CC50: 82800 nM

## Cn1c(-c2ccc([N+](=O)[O-])cc2)[n+](C)c2ccccc21
Plasmodium falciparum [1]; Plasmodium falciparum, 3D7
  EC50: 1310 nM
Plasmodium falciparum [2]; Plasmodium falciparum, W2
  EC50: 376 nM
[3]
  CC50: > 100000 nM

## Clc1ccccc1C[n+]1cc(-c2ccccc2)n2c1CCC2
Plasmodium falciparum [1]; Plasmodium falciparum, 3D7
  EC50: 2330 nM
Plasmodium falciparum [2]; Plasmodium falciparum, W2
  EC50: 3470 nM
[3]
  CC50: > 100000 nM
